# Measured values reported in US20110183954A1, “TRICYCLIC 2,4-DIAMINO-L,3,5-TRIAZINE DERIVATIVES USEFUL FOR THE TREATMENT OF CANCER AND MYELOPROLIFERATIVE DISORDERS” (ASTRAZENECA AB, priority 2008, published 2011).
# Target: human JAK2 (Homo sapiens, UniProt O60674)
# Experiment: Method 1 (JAK2): Amplified Luminescent Proximity Assay (Alphascreen)
# Type: biochemical
# Set-up: His6 (C); purchased Upstate Biotechnology; host or cells: baculovirus in Sf21 cells
# Details: 150 pM JAK2 enzyme, 5 mM ATP, 60 minutes, room temperature, read-out: IC50 (JAK inhibitory activity, Method 1 (JAK2))
# Source text: JAK2 kinase activity may be determined by measuring the kinase's ability to phosphorylate synthetic tyrosine residues within a generic polypeptide substrate using an Amplified Luminescent Proximity Assay (Alphascreen) technology (PerkinElmer, 549 Albany Street, Boston, Mass.).
# To measure JAK2 kinase activity, a commercially available purified enzyme may be used. The enzyme may be a C-terminal His6-tagged, recombinant, human JAK2, amino acids 808-end, (Genbank Accession number NM 004972) expressed by baculovirus in Sf21 cells (Upstate Biotechnology MA). After incubation of the kinase with a biotinylated substrate and adenosine triphosphate (ATP) for 60 minutes at room temperature, the kinase reaction may be stopped by the addition of 30 mM ethylenediaminetetraacetic acid (EDTA). The reaction may be performed in 384 well microtitre plates and the reaction products may be detected with the addition of streptavidin coated Donor Beads and phosphotyrosine-specific antibodies coated Acceptor Beads using the EnVision Multilabel Plate Reader after an overnight incubation at room temperature.
# Chain of human JAK2 (O60674 808-1132 limits assumed): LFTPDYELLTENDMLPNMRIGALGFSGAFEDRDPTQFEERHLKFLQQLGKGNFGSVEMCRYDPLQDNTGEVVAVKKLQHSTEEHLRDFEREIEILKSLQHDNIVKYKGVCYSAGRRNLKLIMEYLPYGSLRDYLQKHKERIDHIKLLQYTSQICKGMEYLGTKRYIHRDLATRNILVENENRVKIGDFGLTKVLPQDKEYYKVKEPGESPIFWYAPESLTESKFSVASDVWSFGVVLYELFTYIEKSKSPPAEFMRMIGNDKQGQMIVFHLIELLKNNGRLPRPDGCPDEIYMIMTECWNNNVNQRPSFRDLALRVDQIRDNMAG
row,SMILES,IC50 [nM]
1,"CC(Nc1nc(Nc2cn(C)cn2)nc(N2CCOCC2)n1)c1ncc(F)cc1F (racemic) [Example 10, N-[1-(3,5-Difluoropyridin-2-yl)ethyl]-N′-(1-methyl-1H-imidazol-4-yl)-6-morpholin-4-yl-1,3,5-triazine-2,4-diamine]",4
2,"C[C@@H](Nc1nc(Nc2cn(C)cn2)nc(N2CCOCC2)n1)c1ncc(F)cc1F (single isomer, unassigned) [Example 10(a)]",190
3,"C[C@H](Nc1nc(Nc2cn(C)cn2)nc(N2CCOCC2)n1)c1ncc(F)cc1F (single isomer, unassigned) [Example 10(b)]",< 8
4,"COC[C@H](Nc1nc(Nc2cn(C)cn2)nc(N2C[C@@H](C)O[C@@H](C)C2)n1)c1ncc(F)cc1F [Example 1, N-[(1R)-1-(3,5-Difluoropyridin-2-yl)-2-methoxyethyl]-6-[(2R,6S)-2,6-dimethylmorpholin-4-yl]-N′-(1-methyl-1H-imidazol-4-yl)-1,3,5-triazine-2,4-diamine]",18
5,"COC[C@H](Nc1nc(Nc2cn(C)cn2)nc(N2CCOC(C)C2)n1)c1ncc(F)cc1F (stereo partly drawn) [Example 2, N-[(1R)-1-(3,5-Difluoropyridin-2-yl)-2-methoxyethyl]-N′-(1-methyl-1H-imidazol-4-yl)-6-(2-methylmorpholin-4-yl)-1,3,5-triazine-2,4-diamine]",11
6,"COC[C@H](Nc1nc(Nc2cn(C)cn2)nc(N2CCOC(C)(C)C2)n1)c1ncc(F)cc1F [Example 3, N-[(1R)-1-(3,5-Difluoropyridin-2-yl)-2-methoxyethyl]-6-(2,2-dimethylmorpholin-4-yl)-N-(1-methyl-1H-imidazol-4-yl)-1,3,5-triazine-2,4-diamine]",9
7,"COC[C@H](Nc1nc(Nc2cn(C)cn2)nc(N2CCOCC2)n1)c1ncc(F)cc1F [Example 4, N-[(1R)-1-(3,5-Difluoropyridin-2-yl)-2-methoxyethyl]-N′-(1-methyl-1H-imidazol-4-yl)-6-morpholin-4-yl-1,3,5-triazine-2,4-diamine]",4
8,"C[C@H](Nc1nc(Nc2cn(C)cn2)nc(N2CCOCC2)n1)c1ncc(F)cn1 [Example 5, N-[(1S)-1-(5-Fluoropyrimidin-2-yl)ethyl]-N′-(1-methyl-1H-imidazol-4-yl)-6-morpholin-4-yl-1,3,5-triazine-2,4-diamine]",9
9,"C[C@H](Nc1nc(Nc2cn(CCc3ccccc3)cn2)nc(N2CCOCC2)n1)c1ncc(F)cn1 [Example 6, N-[(1S)-1-(5-Fluoropyrimidin-2-yl)ethyl]-6-morpholin-4-yl-N′-[1-(2-phenylethyl)-1H-imidazol-4-yl]-1,3,5-triazine-2,4-diamine]",283
10,"C[C@H](Nc1nc(Nc2ncc(C#N)s2)nc(N2CCOCC2)n1)c1ncc(F)cn1 [Example 7, 2-[(4-{[(1S)-1-(5-Fluoropyrimidin-2-yl)ethyl]amino}-6-morpholin-4-yl-1,3,5-triazin-2-yl)amino]-1,3-thiazole-5-carbonitrile]",3170
11,"Cc1cnc(Nc2nc(N[C@@H](C)c3ncc(F)cn3)nc(N3CCOCC3)n2)s1 [Example 8, N-[(1S)-1-(5-Fluoropyrimidin-2-yl)ethyl]-N′-(5-methyl-1,3-thiazol-2-yl)-6-morpholin-4-yl-1,3,5-triazine-2,4-diamine]",4
12,"C[C@H](Nc1nc(Nc2cn(C)cn2)nc(N2CCC(F)(F)CC2)n1)c1ncc(F)cc1F [Example 9, 6-(4,4-Difluoropiperidin-1-yl)-N-[(1S)-1-(3,5-difluoropyridin-2-yl)ethyl]-N-(1-methyl-1H-imidazol-4-yl)-1,3,5-triazine-2,4-diamine]",4
13,"C[C@H](Nc1nc(Nc2cn(C)cn2)nc(N2CCC(F)(F)CC2)n1)c1ncc(F)cn1 [Example 14, 6-(4,4-Difluoropiperidin-1-yl)-N-[(1S)-1-(5-fluoropyrimidin-2-yl)ethyl]-N′-(1-methyl-1H-imidazol-4-yl)-1,3,5-triazine-2,4-diamine]",7
14,"C[C@H](Nc1nc(Nc2cn(CC#N)cn2)nc(N2CCOCC2)n1)c1ncc(F)cn1 [Example 15, {4-[(4-{[(1S)-1-(5-Fluoropyrimidin-2-yl)ethyl]amino}-6-morpholin-4-yl-1,3,5-triazin-2-yl)amino]-1H-imidazol-1-yl}acetonitrile]",873
15,"COCn1cnc(Nc2nc(N[C@@H](C)c3ncc(F)cn3)nc(N3CCOCC3)n2)c1 [Example 16, N-[(1S)-1-(5-Fluoropyrimidin-2-yl)ethyl]-N′-[1-(methoxymethyl)-1H-imidazol-4-yl]-6-morpholin-4-yl-1,3,5-triazine-2,4-diamine]",2870
16,"CC(C)n1cnc(Nc2nc(N[C@@H](C)c3ncc(F)cn3)nc(N3CCOCC3)n2)c1 [Example 17, N-[(1S)-1-(5-Fluoropyrimidin-2-yl)ethyl]-N′-(1-isopropyl-1H-imidazol-4-yl)-6-morpholin-4-yl-1,3,5-triazine-2,4-diamine]",2880
17,"C[C@H](Nc1nc(Nc2cn(C)cn2)nc(N2CC(F)C2)n1)c1ncc(F)cc1F [Example 18, N-[(1S)-1-(3,5-Difluoropyridin-2-yl)ethyl]-6-(3-fluoroazetidin-1-yl)-N′-(1-methyl-1H-imidazol-4-yl)-1,3,5-triazine-2,4-diamine]",13
18,"COC1CN(c2nc(Nc3cn(C)cn3)nc(N[C@@H](C)c3ncc(F)cc3F)n2)C1 [Example 19, N-[(1S)-1-(3,5-Difluoropyridin-2-yl)ethyl]-6-(3-methoxyazetidin-1-yl)-N′-(1-methyl-1H-imidazol-4-yl)-1,3,5-triazine-2,4-diamine]",3
19,"COC1CN(c2nc(Nc3cn(C)cn3)nc(N[C@@H](C)c3ncc(F)cn3)n2)C1 [Example 20, N-[(1S)-1-(5-Fluoropyrimidin-2-yl)ethyl]-6-(3-methoxyazetidin-1-yl)-N′-(1-methyl-1H-imidazol-4-yl)-1,3,5-triazine-2,4-diamine]",7
20,"C[C@H](Nc1nc(Nc2cn(C)cn2)nc(N2CCC(F)CC2)n1)c1ncc(F)cc1F [Example 21, N-[(1S)-1-(3,5-Difluoropyridin-2-yl)ethyl]-6-(4-fluoropiperidin-1-yl)-N′-(1-methyl-1H-imidazol-4-yl)-1,3,5-triazine-2,4-diamine]",4
21,"C[C@H](Nc1nc(Nc2cn(C)cn2)nc(N2CCOC[C@H]2CO)n1)c1ncc(F)cc1F [Example 22, [(3R)-4-(4-{[(1S)-1-(3,5-difluoropyridin-2-yl)ethyl]amino}-6-[(1-methyl-1H-imidazol-4-yl)amino]-1,3,5-triazin-2-yl)morpholin-3-yl]methanol]",4
22,"C[C@H](Nc1nc(Nc2c[nH]cn2)nc(N2CCOCC2)n1)c1ncc(F)cn1 [Example 23, N-[(1S)-1-(5-Fluoropyrimidin-2-yl)ethyl]-N′-1H-imidazol-4-yl-6-morpholin-4-yl-1,3,5-triazine-2,4-diamine]",86
23,"C[C@H](Nc1nc(Nc2cscn2)nc(N2CCOCC2)n1)c1ncc(F)cn1 [Example 26, N-[(1S)-1-(5-Fluoropyrimidin-2-yl)ethyl]-6-morpholin-4-yl-N′-1,3-thiazol-4-yl-1,3,5-triazine-2,4-diamine]",219
24,"C[C@H](Nc1nc(Nc2cn(C)cn2)nc(N2CCOCC2)n1)c1ccc(C#N)cc1 [Example 28, 4-[(1S)-1-({4-[(1-methyl-1H-imidazol-4-yl)amino]-6-morpholin-4-yl-1,3,5-triazin-2-yl}amino)ethyl]benzonitrile]",798
